Source: ChEMBL document CHEMBL5390283, “Discovery of PVD-06 as a Subtype-Selective and Efficient PTPN2 Degrader” (J Med Chem, 2023)
Calls of active or inactive are those of the source. The rule behind the calls is not given here.

Tests used:
Splenocyte = test: Induction of cell proliferation in anti-CD3/CD28-stimulated mouse splenocytes at 0.625 to 10 uM incubated for 3 days by CFSE dye based flow cytometry; format: functional; settings: dose 0.625-10 µM, time 3.0 day
[1] = biological target: Protein cereblon/Tyrosine-protein phosphatase non-receptor type 2 (Homo sapiens) (UniProt P17706+Q96SW2); test: PROTAC activity at CRBN/PTPN2 in human Jurkat cells assessed as induction of PTPN2 degradation at 0.01 to 10 uM by Western blot analysis; format: cell-based; settings: dose 0.01-10 µM
Chain of Protein cereblon/Tyrosine-protein phosphatase non-receptor type 2 (Homo sapiens) (P17706 whole entry, looked up): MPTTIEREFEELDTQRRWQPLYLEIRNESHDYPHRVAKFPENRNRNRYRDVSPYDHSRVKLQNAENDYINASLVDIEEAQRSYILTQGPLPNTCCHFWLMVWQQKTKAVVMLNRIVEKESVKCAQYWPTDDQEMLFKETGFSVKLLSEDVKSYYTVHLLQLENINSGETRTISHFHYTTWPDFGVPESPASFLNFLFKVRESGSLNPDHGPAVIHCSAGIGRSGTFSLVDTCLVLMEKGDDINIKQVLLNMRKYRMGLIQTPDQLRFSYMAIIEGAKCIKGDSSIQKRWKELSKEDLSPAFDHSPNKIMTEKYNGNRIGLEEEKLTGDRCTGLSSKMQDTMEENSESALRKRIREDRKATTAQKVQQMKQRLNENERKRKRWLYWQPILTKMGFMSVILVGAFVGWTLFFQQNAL
Chain of Protein cereblon/Tyrosine-protein phosphatase non-receptor type 2 (Homo sapiens) (Q96SW2 whole entry, looked up): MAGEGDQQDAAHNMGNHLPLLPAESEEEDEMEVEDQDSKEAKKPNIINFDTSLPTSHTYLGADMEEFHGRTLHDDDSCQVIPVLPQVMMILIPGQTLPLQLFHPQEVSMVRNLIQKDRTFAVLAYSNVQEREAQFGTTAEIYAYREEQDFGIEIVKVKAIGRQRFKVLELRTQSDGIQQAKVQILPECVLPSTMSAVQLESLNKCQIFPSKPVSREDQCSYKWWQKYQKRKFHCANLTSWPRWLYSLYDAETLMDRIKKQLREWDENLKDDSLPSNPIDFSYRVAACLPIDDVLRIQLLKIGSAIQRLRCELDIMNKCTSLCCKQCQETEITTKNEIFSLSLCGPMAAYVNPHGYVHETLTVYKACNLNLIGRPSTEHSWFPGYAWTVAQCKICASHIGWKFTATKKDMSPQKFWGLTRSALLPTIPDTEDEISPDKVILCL

[2] = biological target: T1, von Hippel-Lindau disease tumor suppressor/Tyrosine-protein phosphatase non-receptor type 2 (Homo sapiens, UniProt P17706+P40337); test: PROTAC activity at VHL/PTPN2 in human Jurkat cells assessed as induction of PTPN2 degradation at 1 uM by Western blot analysis relative to control; format: cell-based
Target sequence in this assay (P17706 whole entry, looked up): as the sequence (P17706 whole entry, looked up) above
Target sequence in this assay (P40337 whole entry, looked up): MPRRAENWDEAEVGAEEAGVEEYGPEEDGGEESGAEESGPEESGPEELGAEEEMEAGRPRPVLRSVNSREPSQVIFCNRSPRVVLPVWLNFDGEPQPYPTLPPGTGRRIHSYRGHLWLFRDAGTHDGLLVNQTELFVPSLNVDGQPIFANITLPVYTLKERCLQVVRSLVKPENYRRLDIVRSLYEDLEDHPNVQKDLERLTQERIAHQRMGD

[3] = biological target: T1, von Hippel-Lindau disease tumor suppressor/Tyrosine-protein phosphatase non-receptor type 2; test: PROTAC activity at VHL/PTPN2 in human Jurkat cells assessed as induction of PTPN2 degradation at 10 uM by Western blot analysis relative to control; format: cell-based
Target sequence in this assay (P17706 whole entry, looked up): as the sequence (P17706 whole entry, looked up) above
Target sequence in this assay (P40337 whole entry, looked up): as the sequence (P40337 whole entry, looked up) above

[4] = biological target: von Hippel-Lindau disease tumor suppressor/Tyrosine-protein phosphatase non-receptor type 1 (Homo sapiens, UniProt P18031+P40337); test: PROTAC activity at VHL/PTP1B in human Jurkat cells assessed as induction of PTP1B degradation by Western blot analysis; format: cell-based
Chain of von Hippel-Lindau disease tumor suppressor/Tyrosine-protein phosphatase non-receptor type 1 (P18031 whole entry): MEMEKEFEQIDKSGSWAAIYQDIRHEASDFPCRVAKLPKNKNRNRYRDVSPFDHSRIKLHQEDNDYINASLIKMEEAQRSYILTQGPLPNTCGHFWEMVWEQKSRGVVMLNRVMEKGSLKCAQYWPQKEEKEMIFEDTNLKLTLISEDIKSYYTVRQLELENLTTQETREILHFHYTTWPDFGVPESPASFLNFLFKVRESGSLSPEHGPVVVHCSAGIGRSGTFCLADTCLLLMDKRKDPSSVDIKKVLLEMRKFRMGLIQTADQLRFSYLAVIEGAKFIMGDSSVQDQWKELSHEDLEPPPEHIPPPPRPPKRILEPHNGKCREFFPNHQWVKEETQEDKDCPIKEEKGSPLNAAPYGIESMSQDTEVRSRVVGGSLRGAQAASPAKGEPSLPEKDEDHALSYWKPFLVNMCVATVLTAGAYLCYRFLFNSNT
Chain of von Hippel-Lindau disease tumor suppressor/Tyrosine-protein phosphatase non-receptor type 1 (P40337 whole entry): as the sequence (P40337 whole entry, looked up) above

[5] = biological target: T1, von Hippel-Lindau disease tumor suppressor/Tyrosine-protein phosphatase non-receptor type 2; test: PROTAC activity at VHL/PTPN2 in human Jurkat cells assessed as induction of PTPN2 degradation at 100 nM by Western blot analysis relative to control; format: cell-based
Target sequence in this assay (P17706 whole entry, looked up): as the sequence (P17706 whole entry, looked up) above
Target sequence in this assay (P40337 whole entry, looked up): as the sequence (P40337 whole entry, looked up) above

[6] = biological target: T1, von Hippel-Lindau disease tumor suppressor/Tyrosine-protein phosphatase non-receptor type 2; test: PROTAC activity at VHL/PTPN2 in human Jurkat cells assessed as induction of PTPN2 degradation by Western blot analysis; format: cell-based
Target sequence in this assay (P17706 whole entry): as the sequence (P17706 whole entry, looked up) above
Target sequence in this assay (P40337 whole entry): as the sequence (P40337 whole entry, looked up) above

[7] = biological target: T1, von Hippel-Lindau disease tumor suppressor/Tyrosine-protein phosphatase non-receptor type 2; test: PROTAC activity at VHL/PTPN2 in human Jurkat cells assessed as residual activity of PTPN2 level at 1 uM by Western blot analysis relative to control; format: cell-based
Target sequence in this assay (P17706 whole entry, looked up): as the sequence (P17706 whole entry, looked up) above
Target sequence in this assay (P40337 whole entry, looked up): as the sequence (P40337 whole entry, looked up) above

Structure (SMILES)	Activity [2] [%]	Activity [3] [%]	Activity [5] [%]	also measured
Cc1ncsc1-c1ccc([C@H](C)NC(=O)[C@@H]2C[C@@H](Oc3ccccc3)CN2C(=O)[C@@H](NC(=O)CCCCCNC(=O)Cn2cc(-c3ccc4cc(O)c(N5CC(=O)NS5(=O)=O)c(F)c4c3)cn2)C(C)(C)C)cc1	–	–	–	Activity (Splenocyte): inactive
O=C(Cn1cc(-c2ccc3cc(O)c(N4CC(=O)NS4(=O)=O)c(F)c3c2)cn1)NCCCCNc1cccc2c1C(=O)N(C1CCC(=O)NC1=O)C2=O (centres undefined)	–	–	–	Activity [1]: Active
Cn1c(=O)n(C2CCC(=O)NC2=O)c2ccc(C3CCN(CCn4cc(-c5ccc6cc(O)c(N7CC(=O)NS7(=O)=O)c(F)c6c5)cn4)CC3)cc21 (centres undefined)	–	–	–	Activity [1]: Active
Cn1c(=O)n(C2CCC(=O)NC2=O)c2ccc(C3CCN(C(=O)Cn4cc(-c5ccc6cc(O)c(N7CC(=O)NS7(=O)=O)c(F)c6c5)cn4)CC3)cc21 (centres undefined)	–	–	–	Activity [1]: Active
Cc1ncsc1-c1ccc([C@H](C)NC(=O)[C@@H]2C[C@@H](O)CN2C(=O)[C@@H](NC(=O)CNC2CCN(C(=O)Cn3cc(-c4ccc5cc(O)c(N6CC(=O)NS6(=O)=O)c(F)c5c4)cn3)CC2)C(C)(C)C)cc1	72	99	-17	Activity [7]: 20%
Cc1ncsc1-c1ccc([C@H](C)NC(=O)[C@@H]2C[C@@H](O)CN2C(=O)[C@@H](NC(=O)CCNC2CCN(C(=O)Cn3cc(-c4ccc5cc(O)c(N6CC(=O)NS6(=O)=O)c(F)c5c4)cn3)CC2)C(C)(C)C)cc1	35	85	15	–
O=C(Cn1cc(-c2ccc3cc(O)c(N4CC(=O)NS4(=O)=O)c(F)c3c2)cn1)NCCCCCNc1cccc2c1C(=O)N(C1CCC(=O)NC1=O)C2=O (centres undefined)	–	–	–	Activity [1]: Active
O=C(Cn1cc(-c2ccc3cc(O)c(N4CC(=O)NS4(=O)=O)c(F)c3c2)cn1)NCCCNc1cccc2c1C(=O)N(C1CCC(=O)NC1=O)C2=O (centres undefined)	–	–	–	Activity [1]: Active

Further lines, with some results ahead:

Activity [2] [%]	Activity [3] [%]	Activity [5] [%]	Structure (SMILES)	also measured
84	99	40	Cc1ncsc1-c1ccc([C@H](C)NC(=O)[C@@H]2C[C@@H](O)CN2C(=O)[C@@H](NC(=O)CCCCCCNC(=O)Cn2cc(-c3ccc4cc(O)c(N5CC(=O)NS5(=O)=O)c(F)c4c3)cn2)C(C)(C)C)cc1	EC50 [4]: 0.142 µM; EC50 [6]: 0.094 µM
-8	-53	-3	Cc1ncsc1-c1ccc([C@H](C)NC(=O)[C@@H]2C[C@@H](O)CN2C(=O)[C@@H](NC(=O)Cn2cc(-c3ccc4cc(O)c(N5CC(=O)NS5(=O)=O)c(F)c4c3)cn2)C(C)(C)C)cc1	–
33	91	-18	Cc1ncsc1-c1ccc([C@H](C)NC(=O)[C@@H]2C[C@@H](O)CN2C(=O)[C@@H](NC(=O)CNC(=O)Cn2cc(-c3ccc4cc(O)c(N5CC(=O)NS5(=O)=O)c(F)c4c3)cn2)C(C)(C)C)cc1	–
2	62	-2	Cc1ncsc1-c1ccc([C@H](C)NC(=O)[C@@H]2C[C@@H](O)CN2C(=O)[C@@H](NC(=O)c2cn(CCCNC(=O)Cn3cc(-c4ccc5cc(O)c(N6CC(=O)NS6(=O)=O)c(F)c5c4)cn3)nn2)C(C)(C)C)cc1	–
77	92	29	Cc1ncsc1-c1ccc([C@H](C)NC(=O)[C@@H]2C[C@@H](O)CN2C(=O)[C@@H](NC(=O)CCCCNC(=O)Cn2cc(-c3ccc4cc(O)c(N5CC(=O)NS5(=O)=O)c(F)c4c3)cn2)C(C)(C)C)cc1	–
71	98	4	Cc1ncsc1-c1ccc([C@H](C)NC(=O)[C@@H]2C[C@@H](O)CN2C(=O)[C@@H](NC(=O)CCCCCCCCCCNC(=O)Cn2cc(-c3ccc4cc(O)c(N5CC(=O)NS5(=O)=O)c(F)c4c3)cn2)C(C)(C)C)cc1	EC50 [4]: 2 µM; EC50 [6]: 0.571 µM
81	98	26	Cc1ncsc1-c1ccc([C@H](C)NC(=O)[C@@H]2C[C@@H](O)CN2C(=O)[C@@H](NC(=O)CCCNC(=O)Cn2cc(-c3ccc4cc(O)c(N5CC(=O)NS5(=O)=O)c(F)c4c3)cn2)C(C)(C)C)cc1	–
57	96	-1	Cc1ncsc1-c1ccc([C@H](C)NC(=O)[C@@H]2C[C@@H](O)CN2C(=O)[C@@H](NC(=O)CCNC(=O)Cn2cc(-c3ccc4cc(O)c(N5CC(=O)NS5(=O)=O)c(F)c4c3)cn2)C(C)(C)C)cc1	–
60	94	27	Cc1ncsc1-c1ccc([C@H](C)NC(=O)[C@@H]2C[C@@H](O)CN2C(=O)[C@@H](NC(=O)CCCCCCCCNC(=O)Cn2cc(-c3ccc4cc(O)c(N5CC(=O)NS5(=O)=O)c(F)c4c3)cn2)C(C)(C)C)cc1	–
84	99	37	Cc1ncsc1-c1ccc([C@H](C)NC(=O)[C@@H]2C[C@@H](O)CN2C(=O)[C@@H](NC(=O)CCCCCCCNC(=O)Cn2cc(-c3ccc4cc(O)c(N5CC(=O)NS5(=O)=O)c(F)c4c3)cn2)C(C)(C)C)cc1	EC50 [4]: 0.758 µM; EC50 [6]: 0.077 µM
